The source of these data is ChEMBL document CHEMBL5230103, “Hydroxamic acid hybrids as the potential anticancer agents: An Overview” (Eur J Med Chem, 2020).

Values after ≈ are worked out from the molar mass of the structure shown.

Broadly, the IC50 is the concentration that gives 50% inhibition.

For data set [1], the system named is MCF7. The experiment in a line: Cytotoxicity against human MCF7 cells assessed as inhibition of cell growth by MTT assay. Format: functional, cell-based. For orientation: Tetrazolium assays rely on reduction of a dye to a coloured formazan, in cell work by metabolically active cells.
Data set [2] has as its system HepG2. The data set can be described thus: Cytotoxicity against human HepG2 cells assessed as inhibition of cell growth by MTT assay. Format: functional, cell-based.
Another data set has as its system HCT-116. The experiment in a line: Cytotoxicity against human HCT-116 cells assessed as inhibition of cell growth by MTT assay. It is filed as functional, cell-based.
In data set [3] the test system is PC-3. The data set can be described thus: Cytotoxicity against human PC-3 cells assessed as inhibition of cell growth by MTT assay. It is filed as functional, cell-based.
The test system of data set [4] is SW-620. The experiment in a line: Cytotoxicity against human SW620 cells assessed as inhibition of cell growth by MTT assay. It is filed as functional, cell-based.
The subject of another data set is ASPC1. The experiment in a line: Cytotoxicity against human ASPC1 cells assessed as inhibition of cell growth by MTT assay. It is filed as functional, cell-based.
For the next data set, the target named is Histone deacetylase. The data set can be described thus: Inhibition of HDAC (unknown origin). Format: protein assay, Homo sapiens.
Data set [5] deals with SW-620. The experiment in a line: Potency index, ratio of vorinostat IC50 to test compound IC50 for cytotoxicity against human SW620 cells assessed as inhibition of cell growth by MTT assay. Format: functional.
The test system of data set [6] is PC-3. The experiment in a line: Potency index, ratio of vorinostat IC50 to test compound IC50 for cytotoxicity against human PC-3 cells assessed as inhibition of cell growth by MTT assay. It is filed as functional.
For data set [7], the system named is NCI-H23. The experiment in a line: Cytotoxicity against human NCI-H23 cells assessed as inhibition of cell growth by MTT assay. Format: functional, cell-based.
The subject of data set [8] is NCI-H23. The experiment in a line: Potency index, ratio of vorinostat IC50 to test compound IC50 for cytotoxicity against human NCI-H23 cells assessed as inhibition of cell growth by MTT assay. It is filed as functional.
Another data set relates to HL-60. The data set can be described thus: Antiproliferative activity against human HL-60 cells assessed as inhibition of cell growth by MTT assay. It is filed as functional, cell-based.
A further data set deals with 518A2. The data set can be described thus: Cytotoxicity against human 518A2 cells assessed as inhibition of cell growth by MTT assay. Format: functional, cell-based.
The test system of another data set is PANC-1. The data set can be described thus: Cytotoxicity against human PANC-1 cells assessed as inhibition of cell growth by MTT assay. Format: functional, cell-based.
Another data set has as its system HT-29. The experiment in a line: Cytotoxicity against human HT-29 cells assessed as inhibition of cell growth by MTT assay. Format: functional, cell-based.
Data set [9] is described as follows: Cytotoxicity against human MCF7/Topo cells assessed as inhibition of cell growth by MTT assay. It is filed as functional, cell-based.
For the next data set, the system named is KB-V1. The experiment in a line: Cytotoxicity against human vinblastine resistant KB-V1 cells assessed as inhibition of cell growth by MTT assay. It is filed as functional, cell-based.
The nature of data set [10]: Cytotoxicity against chicken heart fibroblast cells. It is filed as toxicity, cell-based, Gallus gallus.
The target in another data set is Histone deacetylase 2 (Homo sapiens, UniProt Q92769). The experiment in a line: Inhibition of HDAC2 (unknown origin).
Sequence of Histone deacetylase 2 (Q92769 whole entry): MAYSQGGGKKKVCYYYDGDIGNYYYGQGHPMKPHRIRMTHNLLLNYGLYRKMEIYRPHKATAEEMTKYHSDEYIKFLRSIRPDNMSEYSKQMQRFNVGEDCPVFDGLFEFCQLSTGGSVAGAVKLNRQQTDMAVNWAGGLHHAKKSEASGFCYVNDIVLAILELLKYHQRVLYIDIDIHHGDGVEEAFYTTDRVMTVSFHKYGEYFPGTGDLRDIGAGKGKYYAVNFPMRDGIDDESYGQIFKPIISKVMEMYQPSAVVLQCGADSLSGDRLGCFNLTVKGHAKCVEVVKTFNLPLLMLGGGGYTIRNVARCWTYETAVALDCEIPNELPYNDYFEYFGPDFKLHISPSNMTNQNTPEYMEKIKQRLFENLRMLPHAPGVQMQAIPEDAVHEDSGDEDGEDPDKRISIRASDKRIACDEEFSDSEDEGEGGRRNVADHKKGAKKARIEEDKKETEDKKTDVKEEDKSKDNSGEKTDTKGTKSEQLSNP
In data set [11] the test system is MCF7. The experiment in a line: cells. To be noted: Homo sapiens, MCF7, 72 h. Format: functional, cell-based.
Description: Cytotoxicity against human MCF7 cells assessed as inhibition of cell growth measured after 72 hrs by MTT assay
For the next data set, the system named is U2OS. The experiment in a line: cells. It is filed as functional, cell-based. To be noted: Homo sapiens, 72 h.
Data set [12] deals with HepG2. The data set can be described thus: Cytotoxicity against human HepG2 cells assessed as inhibition of cell growth measured after 72 hrs by MTT assay. Format: functional, cell-based. To be noted: HepG2, 72 h.
The subject of another data set is RPMI-8226. The experiment in a line: Cytotoxicity against human RPMI-8226 cells assessed as inhibition of cell growth by MTS assay. Format: functional, cell-based.

Description for U2OS: Cytotoxicity against human U2OS cells assessed as inhibition of cell growth measured after 72 hrs by MTT assay

For `O=C(Cn1cnc2c(c1=O)C1CCCCC1S2)NCc1ccc(C(=O)NO)cc1` (configuration not stated), the IC50 in the data set on MCF7 [1], in the data set on HepG2 [2] and with HCT-116 was 4860 nM in each case.
On to `O=C(Cn1cnc2c(c1=O)C1CCCCC1S2)Nc1ccc(C(=O)NO)cc1` (configuration not stated), for which the IC50 with MCF7 [1], in the data set with HepG2 [2] and in the data set on HCT-116 was 4860 nM in each case.
With `Cc1ccc(-c2nnc(NC(=O)CCCCCCC(=O)NO)s2)o1`, the IC50 in the data set with MCF7 [1], in the data set on PC-3 [3], in the data set on SW-620 [4] and with ASPC1 was 880 nM throughout.
On to `COc1cc2ncn(Cc3ccc(C(=O)NO)cc3)c(=O)c2cc1OC`, for which the IC50 was determined as 620 nM in the data set with PC-3 [3], 370 nM against Histone deacetylase, 620 nM with SW-620 [4] and 620 nM with NCI-H23 [7]. The “Ratio IC50” value in the data set on SW-620 [5], in the data set on PC-3 [6] and with NCI-H23 [8] was over 3 each time.
In the case of `C[C@H]1[C@@H](NC(=O)CCCCCC(=O)NO)O[C@@H]2O[C@@]3(C)CC[C@H]4[C@H](C)CC[C@@H]1[C@@]24OO3`, the IC50 came out at 1.28 µg/mL in the data set on MCF7 [1], 1.28 µg/mL with HepG2 [2] and 1.28 µg/mL (≈ 2.91 µM) in the data set with HL-60.
Regarding `C[C@H]1[C@@H](NC(=O)CCCCCCCC(=O)NO)O[C@@H]2O[C@@]3(C)CC[C@H]4[C@H](C)CC[C@@H]1[C@@]24OO3`, the IC50 in the data set on MCF7 [1] amounted to 1.28 µg/mL; with HepG2 [2], 1.28 µg/mL; in the data set with HL-60, 1.28 µg/mL (≈ 2.73 µM).
In the case of `COc1ccc(-c2ncn(C)c2-c2ccc(/C=C/C(=O)NO)cc2)cc1`, the IC50 (in the data set with 518A2; with HCT-116; in the data set with PANC-1; in the data set on HT-29; in data set [9]; in the data set on KB-V1) was 300 nM throughout. Also, in data set [10], the IC50 is over 150000 nM.
For `O=C(/C=C/c1ccc(Cn2cnc3cc(F)ccc3c2=O)cc1)NO`, the IC50 in the data set on PC-3 [3] turned out to be 620 nM; on Histone deacetylase, 150 nM; in the data set with SW-620 [4], 620 nM; with NCI-H23 [7], 620 nM. Further, the “Ratio IC50” value with SW-620 [5], with PC-3 [6] and with NCI-H23 [8] was over 3 each time.
For `COc1ccc2c(c1)C1(OCCO1)C(=O)N2CCCCCCC(=O)NO`, the IC50 in the data set on PC-3 [3] worked out at 50 nM; on Histone deacetylase 2 it was 30 nM; in the data set with SW-620 [4] it was 50 nM; in the data set on ASPC1, 50 nM.
As for `COc1ccc(/C=C/C(=O)c2ccc(OCC(=O)NO)cc2)cc1`, the IC50 in the data set on MCF7 [1], in the data set on HepG2 [2] and in the data set with HCT-116 was 620 nM each time.
On to `O=C(CCCn1cc(CN2C(=O)/C(=N\O)c3cc(F)ccc32)nn1)NO`, for which the IC50 on Histone deacetylase 2 stood at 910 nM.
On to `O=C(COc1ccc(C(=O)/C=C/c2ccc(F)cc2)cc1)NO`, for which the IC50 in the data set on MCF7 [1], in the data set on HepG2 [2] and in the data set on HCT-116 was 620 nM in each case.
Turning to `C[C@H]1[C@@H](NC(=O)CCCCC(=O)NO)O[C@@H]2O[C@@]3(C)CC[C@H]4[C@H](C)CC[C@@H]1[C@@]24OO3`, the IC50 with MCF7 [1] was found to be 1.28 µg/mL; in the data set with HepG2 [2], 1.28 µg/mL; in the data set on HL-60, 1.28 µg/mL (≈ 3 µM).
Regarding `Cc1ccc2c(=O)n(Cc3ccc(/C=C/C(=O)NO)cc3)cnc2c1`, the IC50 is 620 nM in the data set with PC-3 [3], 170 nM against Histone deacetylase, 620 nM in the data set on SW-620 [4] and 620 nM in the data set with NCI-H23 [7]. Moreover, the “Ratio IC50” value in the data set on SW-620 [5], with PC-3 [6] and with NCI-H23 [8] was over 3 in each case.
With `O=C(CCCCCCC(=O)Nc1nnc(-c2cccs2)s1)NO`, the IC50 in the data set on MCF7 [1], in the data set with PC-3 [3], in the data set with SW-620 [4] and in the data set with ASPC1 was 880 nM each time.
With `COc1cc(NC(C)CCCCCCNC(=O)CCC(=O)NO)c2ncccc2c1` (configuration not stated), the IC50 in the data set with MCF7 [11], with U2OS and in the data set with HepG2 [12] was 1600 nM each time.
As to `O=C(CCCCCCC(=O)Nc1nnc(-c2ccc(Br)o2)s1)NO`, the IC50 with MCF7 [1], in the data set with PC-3 [3], in the data set on SW-620 [4] and with ASPC1 was 880 nM each time.
As for `O=C(CCCCCCn1cnc2c(c1=O)C1CCCCC1S2)NO` (configuration not stated), the IC50 in the data set on MCF7 [1], in the data set on HepG2 [2] and with HCT-116 was 3320 nM in each case.
For `CCCCCCSc1ncc(C(=O)NO)c(N(Cc2ccccc2)S(=O)(=O)c2ccc(OC)cc2)n1`, the IC50 in the data set with RPMI-8226 is over 7800 nM.
`O=C(CCCCCCC(=O)Nc1nnc(-c2ccco2)s1)NO`: the IC50 in the data set with MCF7 [1], in the data set with PC-3 [3], with SW-620 [4] and in the data set with ASPC1 was 880 nM in each case.
